Experiments:
[1] = biological target: Angiotensin-converting enzyme (Homo sapiens) (UniProt P12821); test: Selectivity index, ratio of Ki for human wild type ACE N-domain to Ki for human testis ACE C-domain (unknown origin) using Abz-FRK(Dnp)P-OH as substrate by fluorescence based analysis
[2] = biological target: Angiotensin-converting enzyme (Homo sapiens) (UniProt P12821); test: Selectivity index, ratio of Ki for human ACE N-domain soluble form (1 to 629 residues) expressed in CHO cells to Ki for human testis ACE C-domain lacking unique O-glycosylated region, transmembrane anchor and cytoplasmic tail expressed in CHO cells; type: cell-based
[3] = biological target: Angiotensin-converting enzyme (Homo sapiens) (UniProt P12821); test: Selectivity index, ratio of Ki for human somatic ACE N-terminal domain to human somatic ACE C-terminal domain using MCA-RPPGFSAFK-Dnp-OH as substrate by fluorescence based analysis

Sequence of Angiotensin-converting enzyme (Homo sapiens) (P12821 whole entry, the tested form may be a part): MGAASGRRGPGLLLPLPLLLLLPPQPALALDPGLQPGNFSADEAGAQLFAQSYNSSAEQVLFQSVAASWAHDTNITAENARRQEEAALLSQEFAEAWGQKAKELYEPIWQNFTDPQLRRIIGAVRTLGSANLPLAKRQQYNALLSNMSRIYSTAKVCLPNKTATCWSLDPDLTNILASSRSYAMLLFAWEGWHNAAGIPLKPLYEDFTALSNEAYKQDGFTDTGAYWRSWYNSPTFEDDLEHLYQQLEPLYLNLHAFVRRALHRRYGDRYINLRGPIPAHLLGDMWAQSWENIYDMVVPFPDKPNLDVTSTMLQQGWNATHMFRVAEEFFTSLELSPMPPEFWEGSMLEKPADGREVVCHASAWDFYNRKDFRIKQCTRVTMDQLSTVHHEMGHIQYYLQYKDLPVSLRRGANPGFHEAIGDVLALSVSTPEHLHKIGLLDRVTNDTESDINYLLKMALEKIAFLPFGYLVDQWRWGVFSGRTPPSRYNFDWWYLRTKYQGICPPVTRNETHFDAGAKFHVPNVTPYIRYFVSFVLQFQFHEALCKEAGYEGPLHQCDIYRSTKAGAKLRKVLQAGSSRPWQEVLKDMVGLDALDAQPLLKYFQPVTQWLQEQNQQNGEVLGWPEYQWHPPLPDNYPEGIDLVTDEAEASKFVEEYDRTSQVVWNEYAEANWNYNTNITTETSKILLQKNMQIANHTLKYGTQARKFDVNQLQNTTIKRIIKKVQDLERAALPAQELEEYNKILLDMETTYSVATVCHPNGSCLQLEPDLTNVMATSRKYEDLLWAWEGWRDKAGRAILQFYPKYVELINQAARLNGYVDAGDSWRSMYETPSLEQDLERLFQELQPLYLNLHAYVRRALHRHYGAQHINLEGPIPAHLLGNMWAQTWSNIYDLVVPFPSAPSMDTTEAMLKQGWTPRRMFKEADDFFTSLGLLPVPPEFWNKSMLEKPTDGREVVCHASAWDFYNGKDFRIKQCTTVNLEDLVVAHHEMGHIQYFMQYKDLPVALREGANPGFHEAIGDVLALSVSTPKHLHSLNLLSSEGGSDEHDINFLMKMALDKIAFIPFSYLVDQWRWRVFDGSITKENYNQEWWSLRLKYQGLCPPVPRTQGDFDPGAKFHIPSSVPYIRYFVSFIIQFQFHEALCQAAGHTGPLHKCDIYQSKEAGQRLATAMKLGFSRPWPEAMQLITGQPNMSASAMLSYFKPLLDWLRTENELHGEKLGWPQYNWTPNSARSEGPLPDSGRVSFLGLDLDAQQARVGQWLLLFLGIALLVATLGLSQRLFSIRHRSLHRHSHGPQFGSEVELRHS

Row | SMILES | Ratio Ki [1] | further results
1 | NCCCC[C@H](N[C@@H](CCc1ccccc1)C(=O)O)C(=O)N1CCC[C@H]1C(=O)O | 4 | –
2 | CS(=O)(=O)N[C@@H](CCCCN)C(=O)NC[C@H](CC1(C(=O)N[C@@H](Cc2ccc(O)cc2)C(=O)O)CCCC1)C(=O)O | – | Ratio Ki [2]: 12.5
3 | O=C(N[C@@H](Cc1ccccc1)P(=O)(O)[C@@H]1CCC[C@H]1C(=O)N[C@@H](Cc1c[nH]c2ccccc12)C(=O)O)OCc1ccccc1 | – | Ratio Ki [3]: 3000
4 | NCCCC[C@H](N[C@@H](CCc1ccccc1)C(=O)O)C(=O)N[C@H](Cc1c[nH]c2ccccc12)C(=O)O | 243 | –

— ChEMBL document CHEMBL4402607, “Molecular Basis for Omapatrilat and Sampatrilat Binding to Neprilysin-Implications for Dual Inhibitor Design with Angiotensin-Converting Enzyme” (J Med Chem, 2020)
